Laboratory results as given in US20220127570A1, “IMMUNE EFFECTOR CELL AND USE THEREOF” (CAFA THERAPEUTICS LIMITED, priority 2018, published 2022).

What was measured:
[1] = cited from earlier work
[2] = test system: PLC/PRF/5 subcutaneous xenograft; assay: PLC/PRF/5 subcutaneous xenograft model, CAR T in combination with sorafenib; format: in vivo, NPG mice
Procedure: 2) Inoculation of subcutaneous xenograft: PLC/PRF/5 cells in the logarithmic growth phase and in good growth condition were collected by Trypsin digestion and washed once with normal saline. The cell density was adjusted to 1.5×10^7/mL and 200 μL of cell suspension was injected into the subcutaneous part of the right abdomen of NPG mice using a syringe, that is, each mouse was inoculated with 3×10^6 tumor cells, and the inoculation day was the 0th day.
3) Injection of CAR T: On D14 days after subcutaneous inoculation of tumor cells, the average tumor volume was about 260 mm^3. CAR T cells were injected, and the injection dose: 2.0×10^6/animal. On D1-D14 days after subcutaneous inoculation of tumor cells, sorafenib was administered by gavage at a dose of 75 mg/kg, and the gavage volume was 200 ul, once a day, for 14 consecutive days, and the solvent was used as a negative control.

Structure (SMILES): CNC(=O)c1cc(Oc2ccc(NC(=O)Nc3ccc(Cl)c(C(F)(F)F)c3)cc2)ccn1 [Sorafenib]
- solubility in polyvinylglycerol 400 (PEG400) ([1]; PEG400): soluble
- solubility in ethanol ([1]; ethanol): slightly soluble
- solubility in water ([1]; water): poorly soluble
- tumor inhibiting rate ([2]; D18 after injection of CAR T, compared with UTD control group, CAR T 2.0×10^6/animal, sorafenib 75 mg/kg gavage once a day for 14 days): 27.38%
- body weight of mice compared with UTD ([2]; at the beginning of the treatment): decreased
- body weight of mice ([2]; at the end of the treatment): restored
